Usually IC50 stands for the midpoint of a concentration-inhibition curve.

Where “and” joins values, the source holds several entries; their conditions need not be identical. Equal entries are not always repeated. Where two headings read alike, the source gives them in different places.

One series relates to HepG2-cells. The series can be described thus: Cytotoxicity, inhibition of proliferation of HepG2 cells. Format: cell-based, human. The following applies: for CD50, concentration producing 50% inhibition of cell proliferation: two days incubation; for antiproliferative activity: in words. The method, then:
(§1) To this end, established cells of a human myeloid leukemia (HL-60) in RPMI medium, and the above-mentioned HepG2 cells in Dulbecco MEM, respectively, were incubated for two days using varying concentrations of compounds, and the proliferation rate of the cells was subsequently determined. The data were used to determine the concentration of compounds resulting in 50% inhibition of proliferation (CD50).

The next series concerns HL-60 cells. The series can be described thus: Cytotoxicity, inhibition of proliferation of HL-60 cells. It counts as cell-based, human. As to conditions: for CD50, concentration producing 50% inhibition of cell proliferation: two days incubation; for antiproliferative activity: in words. On the procedure:
as §1

For series [1], the system named is HBV. Nature of the series: Inhibition of HBV-replication in HepG2 2.2.15 cells (extracellular HBV DNA, PCR). Format: cell-based, hepatitis B virus. The following applies: read-out: EC50, concentration required for 50% reduction of HBV DNA in the medium of the cells. On the procedure: The antiviral efficacy of the compounds of the invention was investigated on HepG2 2.2.15 cells, a human hepatoblastoma cell line which has the replication-competent HBV genome stably integrated therein and produces infectious progeny viruses in a productive manner (Sells et al., Proc Natl Acad Sci USA 1987, 84: 1005-1009).
The above cells were cultured under standardized conditions as specified by Korba and Gerin, and the amount of extracellular viral DNA was determined (Korba et al., Antiviral Res 1992, 19: 55-70).
Following passaging, the HepG2 2.2.15 cells were seeded at a density of about 60% in 12-well plates and cultured to confluence in 10% FBS Dulbecco MEM. Thereafter, the medium was changed to 2% FBS, and the cells were cultured for another 24 hours.
After another change of medium, the cells were treated with varying concentrations of compounds according to the invention. Every 24 hours the compounds were re-added together with the medium. On the 6th day of treatment, the cell supernatants were centrifuged off and stored at −20° C. until analysis of the HBV DNA was effected.
Following treatment of the culture supernatants with proteinase K, the extracellular viral DNA was amplified by means of PCR using the following primers (forward: 5′-CTCCAGTTCAGGAACAGTAAACCC-3′(SEQ ID NO. 1); reverse: 5′-TTGTGAGCTCAGAAAGGCCTTGTAAGTTGGCG-3′(SEQ ID NO. 2). The PCR products were separated on 1% agarose, stained with ethidium bromide and quantified using a Fluor-S™ Multimager (Biorad).
For calibration of the PCR reaction, serial dilutions of the pUC19 HBV and pTHBV plasmids with known genome equivalents (GE) were used, resulting in a lower detection limit of about 10^3 GE and a linearity between 10^3 and 10^5 GE.

The next series has as its system HIV. Nature of the series: Inhibition of HIV replication. It counts as cell-based. As to conditions: read-out: EC50 against HIV replication.
For another series, the target named is T1, HBV DNA polymerase (Hepatitis B virus genotype D subtype ayw, UniProt P03156).
T1 construct: the endogenous HBV DNA polymerase activity; from tissue; host or cells: serum of patients with untreated hepatitis B virus infection; virus particles purified by ultracentrifugation and lysed
Nature of the series: Inhibition of endogenous HBV DNA polymerase by nucleoside triphosphates. Format: biochemical. As to conditions: virus particles from patient serum, 3H-dCTP, 1 h 37° C., read-out: IC50, 50% inhibition of the HBV DNA polymerase activity. On the procedure:
To determine the endogenous HBV DNA polymerase activity, about 100 ml of serum from patients with untreated hepatitis B virus infections from Charité, Berlin, (>10^7 HBV particles/ml), was centrifuged at 3000 rpm. Virus particles of the cleared serum were sedimented in a Beckman SW28 rotor at 25,000 rpm, 60 min. The virus pellet was suspended in 7 ml of TKM buffer (50 mM Tris-HCl, pH 7.5, 50 mM KCl, 5 mM MgCl2), layered over a step gradient of 10 ml each of 0.3 M, 0.6 M, 0.9 M saccharose in TKM buffer and centrifuged at 25,000 rpm for 20 hours.
The purified virus pellet was suspended in 250 μl TKM buffer, lysed by ultrasound, divided in aliquots and frozen at −80° C. (Davies et al., Antiviral Res 1996, 30: 133-145).
The HBV DNA polymerase assay contained in 30 μl about 2-4×10^8 purified virus particles (lysed beforehand additionally in 6% β-mercaptoethanol, 10% Igepal for 15 min at room temperature), 42 mM Tris-HCl, (pH 7.5), 34 mM MgCl2, 340 mM KCl, 22 mM β-mer-captoethanol, 0.4% Igepal, 70 μM TTP, dATP, dGTP and 1 μCi ^3HdCTP (=0.7 μM dCTP) (Matthes et al., Antimicrob Agents & Chemother 1991, 35: 1254-1257) and varying concentrations of β-L-N4-hydroxycytosine nucleoside triphosphates as inhibitors.
Following a one-hour incubation at 37° C., 20 μl of the assay volume was placed on paper filter, washed 5 times with 5% trichloroacetic acid and 0.1% Na pyrophosphate, and the ^3H-dCMP incorporated in the HBV DNA was subsequently measured in a Liquid Scintillation Counter.
Using the concentration-dependent inhibition curves of HBV DNA synthesis, the concentration of β-L-N4-hydroxycytosine nucleoside triphosphates resulting in 50% inhibition of the HBV DNA polymerase activity was determined.

The subject of series [2] is HBV. As to conditions: treatment of HBV infections; cited from earlier work.
[3] abbreviates: HepG2 2.2.15 cells, 6 days incubation, extracellular HBV DNA.

T1 sequence (P03156 whole entry): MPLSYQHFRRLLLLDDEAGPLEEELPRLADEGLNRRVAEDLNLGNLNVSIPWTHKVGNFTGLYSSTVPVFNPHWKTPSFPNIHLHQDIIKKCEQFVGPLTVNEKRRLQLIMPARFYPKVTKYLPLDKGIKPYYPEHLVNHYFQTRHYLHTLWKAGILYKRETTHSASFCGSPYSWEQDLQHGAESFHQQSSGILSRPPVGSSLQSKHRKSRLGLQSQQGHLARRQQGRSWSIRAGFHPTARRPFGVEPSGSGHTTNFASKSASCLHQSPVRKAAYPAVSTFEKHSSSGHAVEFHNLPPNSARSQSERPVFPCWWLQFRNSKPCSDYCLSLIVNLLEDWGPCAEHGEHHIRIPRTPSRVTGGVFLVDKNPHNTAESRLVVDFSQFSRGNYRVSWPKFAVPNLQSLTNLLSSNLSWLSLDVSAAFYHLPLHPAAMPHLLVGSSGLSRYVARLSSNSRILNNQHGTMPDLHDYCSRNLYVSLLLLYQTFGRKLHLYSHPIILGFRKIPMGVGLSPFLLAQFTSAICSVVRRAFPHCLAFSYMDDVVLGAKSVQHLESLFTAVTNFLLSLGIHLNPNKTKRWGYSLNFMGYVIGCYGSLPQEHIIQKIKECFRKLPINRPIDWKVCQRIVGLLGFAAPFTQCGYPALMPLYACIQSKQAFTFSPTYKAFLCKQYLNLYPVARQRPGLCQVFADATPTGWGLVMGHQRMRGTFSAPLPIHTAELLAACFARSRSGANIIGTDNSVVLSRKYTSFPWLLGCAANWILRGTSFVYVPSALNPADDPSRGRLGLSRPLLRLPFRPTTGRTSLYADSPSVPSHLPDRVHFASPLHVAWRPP

In the case of `Nc1ccn([C@@H]2CS[C@H](CO)O2)c(=O)n1` [3TC (lamivudine), β-L-2′,3′-dideoxy-3′-thiacytidine, reference compound], the “CD50, concentration producing 50% inhibition of cell proliferation” value in the series on HepG2-cells came out at 1900 µM; in the series with HL-60 cells it was 2000 µM. Besides, the EC50 in the series with HBV [1] (Hepatitis B virus, HepG2 2.2.15, 144 h) was found to be 100 nM.
Turning to `O=c1nc(NO)ccn1[C@H]1CS[C@@H](CO)O1` [Hy3TC, β-L-2′,3′-dideoxy-3′-thia-N4-hydroxycytidine], the “CD50, concentration producing 50% inhibition of cell proliferation” value in the series with HepG2-cells was found to be 1230 µM; in the series on HL-60 cells, 1450 µM. Also, the EC50 in the series on HIV was above 25000 nM; in the series with HBV [1] (setting [3]), 500 nM.
As for `O=c1nc(NO)c(F)cn1[C@H]1CS[C@@H](CO)O1` [HyFTC, β-L-2′,3′-dideoxy-3′-thia-5-fluoro-N4-hydroxycytidine], the “CD50, concentration producing 50% inhibition of cell proliferation” value in the series with HepG2-cells amounted to 975 µM; with HL-60 cells, 1100 µM. Besides, the EC50 with HBV [1] (setting [3]) was 300 nM.
Consider `Nc1nc(=O)n([C@@H]2C[C@@H](O)[C@H](CO)O2)cc1F` [L-FCdR, β-L-5-fluorodeoxycytidine, reference compound], for which the EC50 in the series with HBV [1] (setting [3]) was 1200 nM.
On to `O=c1nc(NO)ccn1[C@@H]1C[C@@H](F)[C@H](CO)O1` [L-FHyCdR, β-L-3′-fluoro-2′,3′-dideoxy-N4-hydroxycytidine], for which the results for the “CD50, concentration producing 50% inhibition of cell proliferation” value in the series with HepG2-cells and with HL-60 cells were 820 µM and 4400 µM, respectively.
Turning to `O=c1nc(NO)ccn1[C@@H]1C[C@@H](O)[C@H](CO)O1` [L-HyCdR, β-L-N4-hydroxydeoxycytidine], the entries for the “CD50, concentration producing 50% inhibition of cell proliferation” value in the series with HepG2-cells and in the series with HL-60 cells were 545 µM and 460 µM, respectively. In the series on HBV [1] (setting [3]), the EC50 was determined as 3000 nM.
For `O=c1nc(NO)c(F)cn1[C@@H]1C[C@@H](O)[C@H](CO)O1` [L-HyFCdR, β-L-5-fluoro-N4-hydroxydeoxycytidine], the “CD50, concentration producing 50% inhibition of cell proliferation” value in the series on HepG2-cells turned out to be 920 µM; with HL-60 cells, 1370 µM. Further, the EC50 in the series with HBV [1] (setting [3]) came out at 4500 nM.
As to `O=c1nc(NO)ccn1[C@H]1O[C@@H](CO)C=C1F` [L-HyFddeC, β-L-2′,3′-didehydro-2′,3′-dideoxy-2′-fluoro-N4-hydroxycytidine], in the series on HepG2-cells, the antiproliferative activity result is recorded as “lost the antiproliferative activity” and the “CD50, concentration producing 50% inhibition of cell proliferation” value came to 1370 µM. In addition, in the series with HL-60 cells, the antiproliferative activity result is listed as “lost the antiproliferative activity” and the “CD50, concentration producing 50% inhibition of cell proliferation” value was 1130 µM. For the same molecule, the EC50 in the series with HBV [1] (setting [3]) was below 100 nM.
Turning to `Cc1cn([C@@H]2C[C@@H](O)[C@H](CO)O2)c(=O)nc1NO` [L-HyMetCdR, β-L-5-methyl-N4-hydroxydeoxycytidine], the “CD50, concentration producing 50% inhibition of cell proliferation” value in the series with HepG2-cells came to 490 µM; with HL-60 cells, 600 µM.
In the case of `O=c1nc(NO)ccn1[C@@H]1CC[C@H](CO)O1` [L-HyddC, β-L-2′,3′-dideoxy-N4-hydroxycytidine], the antiproliferative activity entry in the series on HepG2-cells and with HL-60 cells was “lost the antiproliferative activity” throughout. In addition, the “CD50, concentration producing 50% inhibition of cell proliferation” value was determined as 2250 µM in the series on HepG2-cells and 1600 µM in the series on HL-60 cells.
For `O=c1nc(NO)c(F)cn1[C@@H]1CC[C@H](CO)O1` [L-HyddFC, β-L-2′,3′-dideoxy-5-fluoro-N4-hydroxycytidine], the entries for the “CD50, concentration producing 50% inhibition of cell proliferation” value in the series with HepG2-cells and in the series with HL-60 cells were 1580 µM and 1860 µM, respectively. Moreover, the EC50 with HBV [1] (setting [3]) came out at 350 nM.
As to `O=c1nc(NO)ccn1[C@@H]1C=C[C@H](CO)O1` [L-HyddeC, β-L-2′,3′-didehydro-2′,3′-dideoxy-N4-hydroxycytidine], the figures for the “CD50, concentration producing 50% inhibition of cell proliferation” value with HepG2-cells and in the series on HL-60 cells were above 5000 µM and above 3500 µM, respectively. Further, the EC50 with HBV [1] (setting [3]) was 50 nM.
For the molecule `O=c1nc(NO)c(F)cn1[C@@H]1C=C[C@H](CO)O1` [L-HyddeFC, β-L-2′,3′-didehydro-2′,3′-dideoxy-5-fluoro-N4-hydroxycytidine], the antiproliferative activity entry with HepG2-cells and in the series with HL-60 cells was “lost the antiproliferative activity” throughout. Further, the EC50 in the series on HBV [1] (setting [3]) is below 100 nM.
Turning to `[N-]=[N+]=N[C@@H]1C[C@@H](n2ccc(NO)nc2=O)O[C@H]1CO` [L-N3HyCdR, β-L-3′-azido-2′,3′-dideoxy-N4-hydroxycytidine], the “CD50, concentration producing 50% inhibition of cell proliferation” value turned out to be 1160 µM with HepG2-cells and 2000 µM in the series on HL-60 cells.
`Cc1cn([C@@H]2C[C@@H](O)[C@H](CO)O2)c(=O)[nH]c1=O` [L-TdR, β-L-thymidine, reference compound]: the EC50 in the series on HBV [1] (Hepatitis B virus, 144 h, HepG2 2.2.15 cells, 6 days incubation, extracellular HBV DNA) came to 300 nM.
In the case of `Nc1ccn([C@@H]2CC[C@H](CO)O2)c(=O)n1` [L-ddC, β-L-2′,3′-dideoxycytidine, reference compound], the EC50 in the series with HBV [1] (setting [3]) was found to be 250 nM.
For `O=c1nc(NO)ccn1[C@@H]1CS[C@H](COP(=O)(O)OP(=O)(O)OP(=O)(O)O)O1` [Triphosphate of L-Hy3TC], the IC50 at HBV DNA polymerase is 150 to 650 nM and 650 nM.
With `O=c1nc(NO)ccn1[C@@H]1C[C@@H](O)[C@H](COP(=O)(O)OP(=O)(O)OP(=O)(O)O)O1` [Triphosphate of L-HyCdR], the IC50 at HBV DNA polymerase was found to be 6000 nM.
As to `Cc1cn([C@@H]2C[C@@H](O)[C@H](COP(=O)(O)OP(=O)(O)OP(=O)(O)O)O2)c(=O)nc1NO` [Triphosphate of L-HyMetCdR], on HBV DNA polymerase, the half-maximal inhibitory concentration (IC50) was determined as 4000 nM.
As to `O=c1nc(NO)ccn1[C@@H]1CC[C@H](COP(=O)(O)OP(=O)(O)OP(=O)(O)O)O1` [Triphosphate of L-HyddC], the IC50 on HBV DNA polymerase is 150 to 650 nM and 550 nM.
Same read-out and setting: the value for `O=c1nc(NO)ccn1[C@@H]1C=C[C@H](COP(=O)(O)OP(=O)(O)OP(=O)(O)O)O1` [Triphosphate of L-HyddeC] was 150 to 650 nM and 280 nM.
With α-interferon, the “share of the patients in whom it is effective” value in the series on HBV [2] is reported as “about 33%”.

Values taken from US20140031309A1, “Beta-L-N4 Hydroxycytosine Deoxynucleosides and their use as Pharmaceutical Agents in the Prophylaxis or Therapy of Viral Diseases” (MAX-DELBRUECK-CENTRUM FUER MOLEKULARE MEDIZIN, priority 2004, published 2014).
